Legend:
Calu-6 = test: Cancer cell proliferation, Alamar Blue assay, 72 hours; assay type: cell-based; conditions: Homo sapiens, Calu-6
Procedure: (§1) The ability of the compounds described herein to kill or inhibit the proliferation of cancer cells was measured using either the MTT assay, or the Alamar Blue assay, or the Cell Titer Glow® assay using 48 or 72 hours exposure. […] The procedures are briefly described below. Cells of the desired tumor cell line were plated at 2×10^5 cells/ml in 96 well plates. Twice the indicated concentrations of the compounds of the invention were added to cells the following day in an equal volume of media. 72 hours later, cells were lysed and subjected to ATP determination using the CellTiter Glo-Luminescent Cell Viability Assay kit (Promega, Madison, Wis.). Experiments were done in triplicate. When using the MTT assay or the Alamar blue assay, the experimental conditions are essentially similar; at the end of the incubation period, 20 microliters of the MTT solution is added per well and the samples are incubated for an additional four hours, rinsed, and the absorbance at 570 nm measured. […] Table 2 lists the IC50 values for the compounds of the invention in several cell lines including Jurkat, Calu-6, NCI-H82, U937, HCT-116, and MDA-MB-231 cancer cell lines.

HCT-116 = test: as above; assay type: cell-based; conditions: Homo sapiens, HCT-116
Procedure: as §1

Jurkat = test: as above; assay type: cell-based; conditions: Homo sapiens, Jurkat
Procedure: as §1

MDA-MB-231 = test: as above; assay type: cell-based; conditions: Homo sapiens
Procedure: as §1

NCI-H82 = test: as above; assay type: cell-based; conditions: Homo sapiens, NCI-H82, read-out: IC50 NCl-H82
Procedure: as §1

U937 = test: as above; assay type: cell-based; conditions: Homo sapiens, U-937
Procedure: as §1

PFKFB3 = biological target: T1, PFKFB3 (Homo sapiens, UniProt Q16875); test: Inhibition of recombinant PFKFB3 kinase activity (ADP Glow assay); assay type: biochemical; conditions: 250 nM analog concentration; read-out: % Inhibition of PFKFB3 Enzymatic Activity
T1 construct: GST
Procedure: PFKFB3 was prepared by expression in E. coli and purified by GST column and column chromatography. […] The recombinant protein was pure and active as determined by the results of a kinase activity assay commercially available (such as ADP Glow® assay, […]). The same assay was used to determine the inhibition of the protein and the results are shown in Table 5 below (IC50 values or percent inhibition at a fixed concentration). Results confirmed that the compounds of the invention have low nanomolar IC50 values, interacting with PFKFB3 and inhibiting its enzymatic activity.

[1] = Microsomal stability in human liver microsomes; assay type: in vitro ADME
Procedure: Microsomal stability in vitro in different biologic media (liver microsomes, S9 fraction, hepatocytes) and species is ascertained to evaluate the rate at which a compound undergoes metabolism in the experimental in vitro conditions. Results for some compounds of the invention after a 60 minutes incubation period in human liver microsomes are shown in the Table 6 below. […] Experimental conditions are briefly described here: the stability in human liver microsomes of several compounds was done over […] at 37° C. using pooled mixed gender human liver microsomes. These liver microsomes were prepared at 1.0 mg/ml of microsomal protein in a 100 mM potassium phosphate pH 7.4 buffer with 1 mM NADPH. The media was incubated at 37° C. with the compound in solution in DMSO. The concentration of the compound was followed by LC/MS-MS as a function of time. Samples were assayed at t=0, 15, 30, and 60 minutes. Testosterone was used as a positive control. The same experiment was performed with mouse, rat or dog liver microsomes instead of human liver microsomes.

[2] = Cell permeability in Caco2 monolayers; assay type: in vitro ADME; conditions: human, Caco-2, Caco2 cells, pH 7.4
Text: The determination of the permeability in Caco2 or MDR1-MDCK cells is widely used when screening compounds to assess cell permeability, intestinal drug transport and predict absorption rates and to ascertain if a compound might be a Pgp substrate and have cross the blood brain barrier. […] Comparison of the apical to basal (A-B) and basal to apical (B-A) values show if a compound is actively effluxed out the cells and if it is a Pgp substrate. […] Briefly, cell permeability and transport mechanisms in Caco-2 and MDR1-MDCK monolayers experiments were performed in triplicate in the apical-to-basolateral and basolateral-to-apical direction using Transwell wells containing either Caco-2 or MDR1-MDCK monolayers. A modified Hanks buffer pH 7.4 was used in both reservoir and receiver wells with the addition of 1% BSA in the receiver side. Confluent monolayers were used and their integrity was verified using reference compounds (Atenolol as a low permeability reference compound and Propanolol as a high permeability reference compound). A sample in the basolateral and apical sides was taken after 2 hours and the concentration measured by LC/MS-MS.

Pharmacokinetics in mice = assay type: in vivo, Balbc mice
Procedure: The pharmacokinetic parameters for several compounds were determined in mice following IV (intravenous), IP (intraperitoneal), or PO (per os) administration, as well as in rats and dogs. A typical study design includes six Balbc male mice 7 to 8 weeks old. For instance, a dose of 10 mg/kg was administered IV using a 5% DMS0/90% Captisol (20% in water) solution or other pharmaceutically acceptable parenteral and oral formulations. Blood samples were collected at different intervals. Plasma samples were extracted and analyzed using an LC-MS/MS method. Similar protocols were used for the rats (Sprague Dawley rats) or dogs (beagles) PK studies; in the case of dogs PK studies, the number of animals per group was three.
PFK-065 was dosed at 10 mg/kg in male Balbc mice; PFK-095 was dosed at 10 mg/kg in male Sprague Dawley rats; and PFK-112 dosed at 6 mg/kg in male beagle dogs.

[3] = mouse, plasma, IV 10 mg/kg, male Balbc mice

T1 sequence (Q16875 whole entry, species assumed): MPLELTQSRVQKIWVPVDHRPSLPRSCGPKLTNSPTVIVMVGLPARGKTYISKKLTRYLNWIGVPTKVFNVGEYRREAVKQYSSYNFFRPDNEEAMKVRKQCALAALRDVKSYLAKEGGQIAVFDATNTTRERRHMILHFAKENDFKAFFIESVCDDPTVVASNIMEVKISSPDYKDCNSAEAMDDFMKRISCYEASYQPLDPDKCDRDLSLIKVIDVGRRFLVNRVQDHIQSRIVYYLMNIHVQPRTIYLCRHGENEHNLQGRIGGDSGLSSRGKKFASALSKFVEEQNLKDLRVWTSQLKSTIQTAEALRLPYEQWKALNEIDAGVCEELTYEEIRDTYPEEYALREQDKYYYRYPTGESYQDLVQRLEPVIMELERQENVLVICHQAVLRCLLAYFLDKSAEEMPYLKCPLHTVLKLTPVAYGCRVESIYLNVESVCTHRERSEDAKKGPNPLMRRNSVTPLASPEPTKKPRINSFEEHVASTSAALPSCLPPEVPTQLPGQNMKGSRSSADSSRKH

IC50 (Calu-6): 267 nM
IC50 (HCT-116): 1310 nM
IC50 (Jurkat): 775 nM
IC50 (MDA-MB-231): 625 nM
IC50 (NCI-H82): 283 nM
IC50 (U937): 165 nM
inhibition at 0.25 µM (PFKFB3): 13.5%
HLM, Mean metabolized (%) ([1]; 0 min): 0.0%
HLM, Mean metabolized (%) ([1]; 60 min incubation, 1.0 mg/ml microsomal protein, 1 mM NADPH, 37° C.): 93%
Papp A→B at 2 h ([2]; apical to basal): 10.3 ×10⁻⁶ cm/s
Papp B→A at 2 h ([2]; basal to apical): 5.9 ×10⁻⁶ cm/s
T1/2b (Pharmacokinetics in mice; IV 10 mg/kg, male Balbc mice): 2.1 h
AUC(0-inf) (Pharmacokinetics in mice; [3]): 2630 ng·h/mL
Cmax (Pharmacokinetics in mice; [3]): 4110 ng/mL
Vd (Pharmacokinetics in mice; [3]): 11.2 L/kg
% F (from PO group) (Pharmacokinetics in mice; oral bioavailability, Balbc mice, PO 20 mg/kg vs IV 10 mg/kg): 25%
Structure (SMILES): O=C(c1ccccc1)c1cc2c(ccc3ccccc32)[nH]1 [ACT-PFK-065, (3H-Benzo[e]indol-2-yl)-phenyl-methanone]

Source: patent US20130059879A1, “Small Molecule Inhibitors of PFKFB3 and Glycolytic Flux and Their Methods of Use as Anti-Cancer Therapeutics” (UNIVERSITY OF LOUISVILLE RESEARCH FOUNDATION, INC., priority 2010, published 2013)
